Assay results: patent US5849923A, “Heterocyclic-substituted naphthalenyl retinobenzoic acid derivatives” (Bristol-Myers Squibb Company, priority 1996, dated 1998)
Like-named read-outs stand apart in the source and are kept apart here.

Key:
L2987 = experiment: Cytotoxicity assay (alamarBlue), lung line L2987, experiment 2; type: cell-based; details: Homo sapiens, read-out: IC50 values for L2987 experiment 2
Description: FIG. 1 is the cytotoxicity dose response curves for lung line L2987. […] Briefly, the assayed involved plating 1000 cells per well in a volume of 120 μL in a 96 well flat-bottom dish (Corning) on day -1. Twenty-four hours later the appropriate dilution of a compound of formula I was added in a volume of 30 μL complete medium (final volume 150 μL). The plates were sealed with a plate sealer (Dynatech Labs) to prevent evaporation. On day 5 the mylar film was removed and 15 μL of sterile alamarblue was added to each well and the cells were incubated 37° C. 5% CO2 for two hours. Using a Vmax plate reader the optical density for each well was determined having the […]. The 100% signal was determined for cells grown in complete medium containing only 0.5% DMSO. All wells were set-up in triplicate and the mean values were plotted in FIG. 1.

rhino mouse utriculi = experiment: Rhino mouse utriculi reduction assay; type: in vivo, hairless rhino mice (hr^rh /hr^rh); details: once daily for 5 days; for ED30 (concentration to reach 30% (half-maximum) utriculi reduction): topical in ethanol vehicle (50 μl), female rhino mice, 0.00033 mM to 16.5 mM; for activity in rhino mouse utriculi reduction model (in words): topical
Description: Representatives from compounds of formula I were tested for their effect on utriculi reduction on rhino mouse and directly compared to all-trans retinoic acid.
Six to nine week old female hairless rhino mice (hr^rh /hr^rh) were produced in the Bristol-Myers Squibb colony. Test retinoids in ethanol vehicle (50 μl) were applied to the dorsal area (approximately 1.5×3 cm^2) of rhino mice once daily for 5 days (Monday to Friday). For various retinoids, a dose response was obtained with concentrations ranging from 0.00033 mM to 16.5 mM. The animals were sacrificed on the following Monday by CO2 inhalation. A 7/8" full thickness punch was taken from the central dorsal area of each animal. The epidermis of the biopsy was removed from the dermis after incubation in 0.5% acetic acid overnight at 4° C. The separated epidermis was then fixed in formalin, dehydrated with ethanol, and cleared in xylene. To determine the utriculi diameter, each epidermis sheet was placed on a glass slide in xylene. For each specimen, the diameter of 40 utricules was measured with an image analysis system (IBM PC, Image Measure program and Olympus microscope with video camera). % Utriculi reduction was calculated as [formula]
Since the maximum effect in this assay is approximately 60% utriculi reduction, the activity of various test compounds is reported as ED30 in Table 1, the concentration to reach 30% (half-maximum) utriculi reduction.

[1] = system: squamous-cell carcinoma of the head and neck; details: Hong, W. K. et al., N. Engl. J. Med., 1990; cited from earlier work
[2] = 120 h, L2987, experiment 2, read on day 5, alamarBlue

SMILES: CC1(C)CC=C(c2cccs2)c2cc(C(=O)Nc3ccc(C(=O)O)cc3)ccc21 [I^2 a, 4-[[[[5,6-Dihydro-5,5-dimethvl-8-(2-thienyl)]-2naphthalenyl]carbonyl]amino]benzoic acid]
- IC50 (L2987; [2]): 64 µM
- ED30 (concentration to reach 30% (half-maximum) utriculi reduction) (rhino mouse utriculi): > 10000 µM

SMILES: CC1(C)CC=C(c2cccnc2)c2cc(C(=O)Nc3ccc(C(=O)O)cc3)ccc21 [I^2 f, 4-[[[[5,6-Dihydro-5,5-dimethyl-8-(3-pyridinyl)]-2-naphthalenyl]carbonyl]amino]benzoic acid]
- activity in rhino mouse utriculi reduction model (in words) (rhino mouse utriculi): inactive

SMILES: CC1(C)CC=C(c2ccoc2)c2cc(C(=O)Nc3ccc(C(=O)O)cc3)ccc21 [I^2 d, 4-[[[[5,6-Dihydro-5,5-dimethyl-8-(3-furyl)]-2-naphthalenyl]carbonyl]amino]benzoic acid]
- activity in rhino mouse utriculi reduction model (in words) (rhino mouse utriculi): inactive

SMILES: Cn1cccc1C1=CCC(C)(C)c2ccc(C(=O)Nc3ccc(C(=O)O)cc3)cc21 [I^2 g, 4-[[[[5,6-Dihydro-5,5-dimethyl-8-(2-N-methylpyrolyl)]-2-naphthalenyl]carbonyl]amino]benzoic acid]
- ED30 (concentration to reach 30% (half-maximum) utriculi reduction) (rhino mouse utriculi): 2070 µM

SMILES: CC1=C(/C=C/C(C)=C/C=C/C(C)=C/C(=O)O)C(C)(C)CCC1 [All trans retinoic acid, reference compound]
- IC50 (L2987; L2987, 120 h): 68 µM

SMILES: Cc1ccsc1C1=CCC(C)(C)c2ccc(C(=O)Nc3ccc(C(=O)O)cc3)cc21 [I^2 b]
- IC50 (L2987; [2]): 50 µM

SMILES: CC1(C)CC=C(c2ccsc2)c2cc(C(=O)Nc3ccc(C(=O)O)cc3)ccc21 [I^2 e, 4-[[[[5,6-Dihydro-5,5-dimethyl-8-(3-thienyl)]-2-naphthalenyl]carbonyl]amino]benzoic acid]
- ED30 (concentration to reach 30% (half-maximum) utriculi reduction) (rhino mouse utriculi): 3890 µM

SMILES: CC1=C(/C=C/C(C)=C/C=C/C(C)=C\C(=O)O)C(C)(C)CCC1 [Isotretinoin]
- prevention of second primary tumors (in words) [1]: useful in prevention of second primary tumors
